According to patent US8415312B2, “Compound which is a nystatin derivative” (Biosergen AS, priority 2007, dated 2013):
In brackets after ≈: the same amount, converted by molar mass. Several values for one entry are separate records, joined by “and”; a condition that tells them apart may be missing. Identical values can stand only once.

Key:
[1] = system: mice (C57B1/6xDBA/2)F1 B6D2F1; conditions: for LD50 / MTD: single injection into tail vein, probit analysis
In short: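 Male B6D2F1 mice, 20-22 g, given one tail-vein injection of antibiotic suspended with sodium deoxycholate in phosphate buffer, within 1-1.5 h of preparation. Doses spanned 0% to 100% lethality with at least 3 intermediate doses, in randomized groups of 6 mice.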

Candida albicans = assay: Neutropenic mouse model of disseminated candidosis; type: in vivo
Protocol: Mice were rendered neutropenic by injection with cyclophosphamide monohydrate (Fluka, BioChemika, Sigma-Aldrich, Switzerland) intraperitoneally 2×100 mg/kg of body weight 1 day before infection.

[2] = system: Candida albicans ATCC 10231; assay: Antifungal susceptibility study (2), MIC50 by OD490 growth; type: cell-based; conditions: 50% growth inhibition from regression curve, M19 medium without NaCl, 30° C.
Protocol: The anti-fungal activity of several of the nystatin derivatives was further investigated. […] The anti-fungal activity of a number of the nystatin derivatives was therefore determined in a method which is designed to be more sensitive.
The test organism used for the further testing of polyene macrolide bioactivity was Candida albicans ATCC 10231, grown in 120 μl of standard M19 medium without NaCl (with an inoculum of 1000 cfu per well) and 30 μl of diluted polyene macrolide samples. The antibiotics were diluted in MeOH in series ensuring a spectrum of concentrations which yielded results ranging from complete growth inhibition to no inhibition of the test organism. The test organism cultures with antibiotic dilutions were incubated in 96-well microtiter plates at 30° C. without shaking, and growth was measured as OD490 after 12, 14 and 16 hours on a SpectraMax Plus microtiter plate reader. OD was plotted against antibiotic concentration, and MIC50 was estimated from the regression curve at 50% growth inhibition.

[3] = system: Candida albicans ATCC 14053; assay: Antifungal susceptibility study (1), broth microdilution MIC; type: cell-based; conditions: lowest concentration preventing any visible growth, read at 48 hours, 35° C., RPMI 1640 pH 7.0
In short: (§1)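 Broth microdilution in test medium at pH 7.0 with two-fold compound dilutions (DMSO stocks diluted 50-fold into medium), inoculated with freshly grown yeast cultures. Plates were incubated without agitation at 35° C. for C. albicans or 25° C. for C. humicolus. MIC was taken as the concentration with no visible growth, read at 48 hours.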

[4] = system: Cryptococcus humicolus ATCC 9949; assay: as above; type: cell-based; conditions: lowest concentration preventing any visible growth, read at 48 hours, 25° C., RPMI 1640 pH 7.0
In short: as §1

erythrocytes = assay: In vitro toxicity study, haemolysis (Tables 11 and 12); type: cell-based, horse
Protocol: The toxicity of various nystatin derivatives was tested at 2 and 5 μg/mL and at 25 μM.
Compounds were dissolved in DMSO at 5 mg/mL and 0.1 mL samples with different concentrations were prepared in DMSO. The samples were mixed with 0.9 mL PBS buffer containing 2.5% horse blood (PBS-HB; kept on ice) and incubated at 37° C. for 30 min without agitation.
Cells were pelleted by centrifugation at 5000 rpm for 5 min and haemolysis was evaluated by measuring OD545. 100% haemolysis was defined as the OD545 value obtained from a suspension of 2.5% horse blood in distilled water.

[5] = system: yeasts and filamentous fungi (moulds); assay: Antifungal susceptibility study (1), overall comparison across the test organisms; type: cell-based; conditions: Table 5 MICs
Protocol: The organisms used for susceptibility testing were: Candida albicans ATCC 14053, Cryptococcus humicolus ATCC 9949, Aspergillus niger ATCC 16404 and Fusarium oxysporum VKM F-140 (=CMI, IMI 90473). Organisms were stored on potato dextrose agar […] 50% glycerol solution at -70° C. For short-term storage, stock cultures were stored on agar […] 4° C. The cultures of yeasts were sub-cultured onto Sabouraud dextrose (SAB) agar and incubated for 24 hours at 35° C. (Candida albicans) or for 48 hours at 25° C. (Cryptococcus humicolus) to obtain a freshly grown pure culture. The cultures of moulds were sub-cultured onto potato dextrose agar and incubated for 7 days at 35° C. […] (Fusarium oxysporum) to ensure maximum sporulation. Sterile 96-well flat-bottomed microtitration plates were used for testing. 100 μl of diluted inocula were dispensed into each microdilution well containing 100 μl of the double dilutions of compounds. Drug-free and yeast/mould-free controls were included. Microdilution trays were incubated at 35° C. (Candida albicans and moulds) or 25° C. (Cryptococcus humicolus) without agitation and observed for the presence or absence of visible growth. […] Minimal inhibitory concentrations (MICs) were read at 48 hours.

[6] = system: Aspergillus niger ATCC 16404; assay: Antifungal susceptibility study (1), broth microdilution MIC; type: cell-based; conditions: lowest concentration preventing any visible growth, read at 48 hours, 35° C., RPMI 1640 pH 7.0
In short: (§2)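 Broth microdilution was run at pH 7.0 with compounds diluted from DMSO solutions and mixed 1:1 with conidial inoculum. Spore suspensions were adjusted to OD530 0.09-0.11 for A. niger or 0.15-0.17 for F. oxysporum, then diluted 1:50. Plates were incubated at 35° C without agitation, and MIC was read at 48 hours as absence of visible growth.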

[7] = system: Fusarium oxysporum VKM F-140; assay: as above; type: cell-based; conditions: lowest concentration preventing any visible growth, read at 48 hours, 35° C., RPMI 1640 pH 7.0
In short: as §2

SMILES	acute toxicity, times lower than amphotericin B [1]	LD50 [1]	MTD [1]	activity compared with amphotericin B (Candida albicans)	MIC50 [2]	MIC Candida albicans ATCC 14053 [3]	MIC Cryptococcus humicolus ATCC 9949 [4]	Haemolysis of erythrocytes, Mean ± S.E.M. (erythrocytes; 25 μM (Table 12))	Haemolysis of erythrocytes (erythrocytes; 25 μM, individual blood samples (Table 12))	anti-fungal activity compared with Amphotericin B and S44HP [5]	MIC Aspergillus niger ATCC 16404 [6]	MIC Fusarium oxysporum VKM F-140 [7]
CC1C=CC=CC=CC=CC=CC=CC=CC(OC2OC(C)C(O)C(N)C2O)CC2OC(O)(CC(O)CCCC(O)CC(O)CC(O)CC(=O)OC(C)C(C)C1O)CC(O)C2C.NC(CCC(=O)O)C(=O)O (stereo not shown) [Compound 25]	~20 times	50.8 mg/kg	42.8 mg/kg	less active than amphotericin B	–	–	–	–	–	–	–	–
CCOC(=O)CNC(=O)C1C(O)CC2(O)CC(O)C(O)CCC(O)CC(O)CC(O)CC(=O)OC(C)C(C)C(O)C(C)C=CC=CC=CC=CC=CC=CC=CC(OC3OC(C)C(O)C(N)C3O)CC1O2 (stereo not shown) [Compound 9]	–	–	–	–	0.13 µg/mL (≈ 0.129 µM)	1 µg/mL (≈ 0.991 µM)	1 µg/mL (≈ 0.991 µM)	18.4 ± 1.9%	18.0% and 16.7% and 22.4% and 25% and 16.2% and 12.2%	comparable anti-fungal activity to Amphotericin B and S44HP	2 µg/mL (≈ 1.98 µM)	4 µg/mL (≈ 3.96 µM)
CC1C=CC=CC=CC=CC=CC=CC=CC(OC2OC(C)C(O)C(N)C2O)CC2OC(O)(CC(O)CC(O)CC(O)CC(O)CC(O)CC(=O)OC(C)C(C)C1O)CC(O)C2C.NC(CCC(=O)O)C(=O)O (stereo not shown) [Compound 26]	~20 times	50.0 mg/kg	43.1 mg/kg	less active than amphotericin B	–	–	–	–	–	–	–	–
